Results published in patent US20250115620A1, “BRIDGED TRICYCLIC CARBAMOYLPYRIDONE COMPOUNDS AND USES THEREOF” (Gilead Sciences, Inc., priority 2022, published 2025).
pEC50: −log10 of the molar value. Where two headings read alike, the source gives them in different places.

Columns and labels:
in vitro = details: human, uninfected MT-4 cells
Experimental: Compounds were serially diluted (1:3) in DMSO on 384-well polypropylene plates and further diluted 200-fold into complete RPMI media (10% FBS, 1% P/S) using the Biotek Micro Flow and Labcyte ECHO acoustic dispenser. […] Infected and uninfected MT-4 cells were further diluted in complete RPMI media and added to each plate using a Micro Flow dispenser. After 5 days incubation in a humidified and temperature controlled incubator (37° C.), Cell Titer Glo (Promega) was added to the assay plates and chemiluminescence read using an Envision plate-reader.
Assays were performed as above except uninfected MT-4 cells were added to each well containing test compound. In addition, 10 μM puromycin was added to the last column of each assay plate to assess a base level of cytotoxicity.

HIV-1 (IIIB) = assay: microbe, parasite or virus in culture; type: cell-based; details: Human immunodeficiency virus 1, IIIB, MT4, 120 h, HIV-1 (IIIB) in MT-4 cells, 5 days incubation, Cell Titer Glo; read-out: MT4 EC50
pLAI reporter virus = assay: microbe, parasite or virus in culture; type: cell-based, HIV; details: Human immunodeficiency virus 1, MT4, 72 h

| Structure (SMILES) | CC50 at 5 days (in vitro) [nM] | pEC50 (HIV-1 (IIIB)) | pEC50 (pLAI reporter virus; read-out: RLUC 50% HS EC50) | pEC50 (pLAI reporter virus; read-out: RLUC CCM EC50) |
| --- | --- | --- | --- | --- |
| C[C@H]1CC[C@]2(CC(N3CCCC3)=NO2)[C@H]2CN1C(=O)c1c(O)c(=O)c(C(=O)NCc3c(F)cc(F)cc3F)cn12 [Example 75, (3′S,5S,7′R)-12′-hydroxy-3′-methyl-1′,11′-dioxo-3-(pyrrolidin-1-yl)-N-(2,4,6-trifluorobenzyl)-1′,4′,5′,11′-tetrahydro-3′H,4H,7′H-spiro[isoxazole-5,6′-[2,7]methanopyrido[1,2-a][1,4]diazonine]-10′-carboxamide] | 14100 | 8.74 | 8.74 | 9.52 |
| C[C@H]1CC[C@]2(CC(n3cnnc3)=NO2)[C@H]2CN1C(=O)c1c(O)c(=O)c(C(=O)NCc3c(F)cc(F)cc3F)cn12 [Example 76, (3′S,5S,7′R)-12′-hydroxy-3′-methyl-1′,11′-dioxo-3-(4H-1,2,4-triazol-4-yl)-N-(2,4,6-trifluorobenzyl)-1′,4′,5′,11′-tetrahydro-3′H,4H,7′H-spiro[isoxazole-5,6′-[2,7]methanopyrido[1,2-a][1,4]diazonine]-10′-carboxamide] | 10100 | 8.66 | 8.48 | 9.40 |
| C[C@H]1CC[C@]2(CC(n3cccn3)=NO2)[C@H]2CN1C(=O)c1c(O)c(=O)c(C(=O)NCc3c(F)cc(F)cc3F)cn12 [Example 77, (3′S,5S,7′R)-12′-hydroxy-3′-methyl-1′,11′-dioxo-3-(1H-pyrazol-1-yl)-N-(2,4,6-trifluorobenzyl)-1′,4′,5′,11′-tetrahydro-3′H,4H,7′H-spiro[isoxazole-5,6′-[2,7]methanopyrido[1,2-a][1,4]diazonine]-10′-carboxamide] | 1480 | 8.54 | 7.75 | 9.30 |
| C[C@H]1CC[C@]2(CC(C#CC(C)(C)S(C)(=O)=O)=NO2)[C@H]2CN1C(=O)c1c(O)c(=O)c(C(=O)NCc3c(F)cc(F)cc3F)cn12 [Example 79, (3′S,5S,7′R)-12′-hydroxy-3′-methyl-3-(3-methyl-3-(methylsulfonyl)but-1-yn-1-yl)-1′,11′-dioxo-N-(2,4,6-trifluorobenzyl)-1′,4′,5′,11′-tetrahydro-3′H,4H,7′H-spiro[isoxazole-5,6′-[2,7]methanopyrido[1,2-a][1,4]diazonine]-10′-carboxamide] | ≥ 50000 | 8.32 | 8.85 | 9.00 |
| C[C@H]1CC[C@@]2(CC(C#CC(C)(C)S(C)(=O)=O)=NO2)[C@H]2CN1C(=O)c1c(O)c(=O)c(C(=O)NCc3c(F)cc(F)cc3F)cn12 [Example 80, (3′S,5R,7′R)-12′-hydroxy-3′-methyl-3-(3-methyl-3-(methylsulfonyl)but-1-yn-1-yl)-1′,11′-dioxo-N-(2,4,6-trifluorobenzyl)-1′,4′,5′,11′-tetrahydro-3′H,4H,7′H-spiro[isoxazole-5,6′-[2,7]methanopyrido[1,2-a][1,4]diazonine]-10′-carboxamide] | ≥ 50000 | 7.09 | 7.52 | 7.80 |
| C[C@H]1CC[C@]2(CC(C#CC(C)(C)O)=NO2)[C@H]2CN1C(=O)c1c(O)c(=O)c(C(=O)NCc3c(F)cc(F)cc3F)cn12 [Example 81, (3′S,5S,7′R)-12′-hydroxy-3-(3-hydroxy-3-methylbut-1-yn-1-yl)-3′-methyl-1′,11′-dioxo-N-(2,4,6-trifluorobenzyl)-1′,4′,5′,11′-tetrahydro-3′H,4H,7′H-spiro[isoxazole-5,6′-[2,7]methanopyrido[1,2-a][1,4]diazonine]-10′-carboxamide] | 19600 | 8.68 | 9.22 | 9.30 |
| C[C@H]1CC[C@]2(CC(F)=NO2)[C@H]2CN1C(=O)c1c(O)c(=O)c(C(=O)NCc3c(F)cc(F)cc3F)cn12 [Example 82, (3′S,5S,7′R)-3-fluoro-12′-hydroxy-3′-methyl-1′,11′-dioxo-N-(2,4,6-trifluorobenzyl)-1′,4′,5′,11′-tetrahydro-3′H,4H,7′H-spiro[isoxazole-5,6′-[2,7]methanopyrido[1,2-a][1,4]diazonine]-10′-carboxamide] | 5460 | 8.15 | 6.73 | 8.89 |
| [2H]C1C(OC)=NO[C@@]12CC[C@H](C)N1C[C@H]2n2cc(C(=O)NCc3c(F)cc(F)cc3F)c(=O)c(O)c2C1=O (stereo partly drawn) [Example 83, (3′S,5S,7′R)-12′-hydroxy-3-methoxy-3′-methyl-1′,11′-dioxo-N-(2,4,6-trifluorobenzyl)-1′,4′,5′,11′-tetrahydro-3′H,4H,7′H-spiro[isoxazole-5,6′-[2,7]methanopyrido[1,2-a][1,4]diazonine]-4-d-10′-carboxamide] | 16200 | 8.64 | 7.39 | 9.52 |
| COC1=NO[C@@]2(CC[C@H](C)N3C[C@H]2n2cc(C(=O)NCc4c(F)cc(F)cc4F)c(=O)c(O)c2C3=O)[C@H]1O [Example 84, (3′S,4R,5R,7′R)-4,12′-dihydroxy-3-methoxy-3′-methyl-1′,11′-dioxo-N-(2,4,6-trifluorobenzyl)-1′,4′,5′,11′-tetrahydro-3′H,4H,7′H-spiro[isoxazole-5,6′-[2,7]methanopyrido[1,2-a][1,4]diazonine]-10′-carboxamide] | 25800 | 8.80 | 7.65 | 9.52 |
| COC1=NO[C@@]2(CC[C@H](C)N3C[C@H]2n2cc(C(=O)NCc4c(F)cc(F)cc4F)c(=O)c(O)c2C3=O)[C@H]1C [Example 85, (3′S,4R,5S,7′R)-12′-hydroxy-3-methoxy-3′,4-dimethyl-1′,11′-dioxo-N-(2,4,6-trifluorobenzyl)-1′,4′,5′,11′-tetrahydro-3′H,4H,7′H-spiro[isoxazole-5,6′-[2,7]methanopyrido[1,2-a][1,4]diazonine]-10′-carboxamide] | 29600 | 9.00 | 7.54 | 9.70 |
| COC1=NO[C@@]2(CC[C@H](C)N3C[C@H]2n2cc(C(=O)NCc4c(F)cc(F)cc4F)c(=O)c(O)c2C3=O)[C@@H]1F [Example 86, (3′S,4S,5R,7′R)-4-fluoro-12′-hydroxy-3-methoxy-3′-methyl-1′,11′-dioxo-N-(2,4,6-trifluorobenzyl)-1′,4′,5′,11′-tetrahydro-3′H,4H,7′H-spiro[isoxazole-5,6′-[2,7]methanopyrido[1,2-a][1,4]diazonine]-10′-carboxamide] | 11900 | 8.92 | 7.16 | 9.52 |
| COC1=NO[C@@]2(CC[C@H](C)N3C[C@H]2n2cc(C(=O)NCc4c(F)cc(F)cc4F)c(=O)c(O)c2C3=O)[C@H]1F [Example 87, (3′S,4R,5R,7′R)-4-fluoro-12′-hydroxy-3-methoxy-3′-methyl-1′,11′-dioxo-N-(2,4,6-trifluorobenzyl)-1′,4′,5′,11′-tetrahydro-3′H,4H,7′H-spiro[isoxazole-5,6′-[2,7]methanopyrido[1,2-a][1,4]diazonine]-10′-carboxamide] | 10500 | 8.92 | 7.50 | 9.70 |
| C[C@H]1CC[C@@]2(ON=C(CF)[C@@H]2O)[C@H]2CN1C(=O)c1c(O)c(=O)c(C(=O)NCc3c(F)cc(F)cc3F)cn12 [Example 88, (3′S,4S,5R,7′R)-3-(fluoromethyl)-4,12′-dihydroxy-3′-methyl-1′,11′-dioxo-N-(2,4,6-trifluorobenzyl)-1′,4′,5′,11′-tetrahydro-3′H,4H,7′H-spiro[isoxazole-5,6′-[2,7]methanopyrido[1,2-a][1,4]diazonine]-10′-carboxamide] | ≥ 50000 | 8.59 | 6.55 | 9.52 |
| C[C@H]1CC[C@@]2(ON=C(CF)[C@@H]2O)[C@H]2CN1C(=O)c1c(O)c(=O)c(C(=O)NCc3ccc(F)cc3F)cn12 [Example 89, (3′S,4S,5R,7′R)—N-(2,4-difluorobenzyl)-3-(fluoromethyl)-4,12′-dihydroxy-3′-methyl-1′,11′-dioxo-1′,4′,5′,11′-tetrahydro-3′H,4H,7′H-spiro[isoxazole-5,6′-[2,7]methanopyrido[1,2-a][1,4]diazonine]-10′-carboxamide] | ≥ 50000 | 8.89 | 7.20 | 9.40 |
| CC1=NO[C@@]2(CC[C@H](C)N3C[C@H]2n2cc(C(=O)NCc4ccc(F)cc4F)c(=O)c(O)c2C3=O)O1 [Example 91, (3′S,5R,7′R)—N-(2,4-difluorobenzyl)-12′-hydroxy-3,3′-dimethyl-1′,11′-dioxo-1′,4′,5′,11′-tetrahydro-3′H,7′H-spiro[[1,4,2]dioxazole-5,6′-[2,7]methanopyrido[1,2-a][1,4]diazonine]-10′-carboxamide] | 20000 | 8.85 | 6.80 | 9.70 |
| CC1=NO[C@@]2(CC[C@H](C)N3C[C@H]2n2cc(C(=O)NCc4c(F)cc(F)cc4F)c(=O)c(O)c2C3=O)O1 [Example 92, (3′S,5R,7′R)-12′-hydroxy-3,3′-dimethyl-1′,11′-dioxo-N-(2,4,6-trifluorobenzyl)-1′,4′,5′,11′-tetrahydro-3′H,7′H-spiro[[1,4,2]dioxazole-5,6′-[2,7]methanopyrido[1,2-a][1,4]diazonine]-10′-carboxamide] | 24900 | 9.15 | 6.39 | 9.70 |
| CCC1=NO[C@@]2(CC[C@H](C)N3C[C@H]2n2cc(C(=O)NCc4c(F)cc(F)cc4F)c(=O)c(O)c2C3=O)O1 [Example 93, (3′S,5R,7′R)-3-ethyl-12′-hydroxy-3′-methyl-1′,11′-dioxo-N-(2,4,6-trifluorobenzyl)-1′,4′,5′,11′-tetrahydro-3′H,7′H-spiro[[1,4,2]dioxazole-5,6′-[2,7]methanopyrido[1,2-a][1,4]diazonine]-10′-carboxamide] | 13600 | 9.15 | 6.21 | 9.70 |
